System: B16V mouse melanoma cells
Assay: B16 V mouse melanoma cell test (melanin content)
Assay type: cell-based
Conditions: for Melanin content in pg/B-16V cell: relative to negative control DMSO 0.1% = 100
Description: mouse melanoma cells (manufacturer: DSMZ; Article No.: ACC370) in RPMI medium (Invitrogen, Article No.: 31870), to which 10% of FBS (foetal bovine serum; Invitrogen, Article No.: 10499044), 2 mM L-glutamine (Invitrogen, Article No: 25030) and 1 mM sodium pyruvate (Invitrogen, Article No.: 11360) had additionally been added (=modified RPMI medium), are transferred into a culture flask and incubated at 37° C. and 5% CO2 for 72 h. The medium is separated off, and the cells are washed with 10 ml of D-PBS (Dulbecco's phosphate-buffered salines; Invitrogen, Article No.: 14190) and subsequently removed by suction. 1 ml of HyQtase cell detachment solution (Hyclone, Article No.: SV30030.01) is added to the cells. The bottle is swirled a number of times, and the HyQtase cell detachment solution is subsequently removed by suction. The cells are then incubated in the incubator at 37° C. and 5% CO2 for 5 min. The cells are taken up in the modified RPMI medium (see above), and the cell count is determined. To this end, the cells are stained with Trypan Blue and counted in a Neubauer chamber. The cells are subsequently sown out again in the modified RPMI medium (see above) in a defined cell count of 80,000 cells per well (6-well clear plate, TCT, PS (Nunc)). The cells are incubated at 37° C. and 5% CO2 for 24 h, the medium is then removed. The substance to be investigated (see table below) is subsequenly added in various concentrations. After the final incubation period, the medium is removed by suction, and the cells are washed with 1000 μl of D-PBS (Invitrogen, Article No.: 14190). The medium is again removed by suction. 250 μl of HyQtase cell detachment solution (Hyclone, Article No.: SV30030.01) are added to the cells. The 6-well plate is swirled a number of times, and the HyQtase cell detachment solution is subsequently removed by suction. The cells are then incubated in the incubator at 37° C. and 5% CO2 for 5 min. The cells are taken up in 1.5 ml of DPBS (Invitrogen, Article No.: 14190) and transferred into a cup (SARSTEDT, Ref. 72.692.005). The cell count is subsequently determined. To this end, the cells are stained with Trypan Blue and counted in a NeuBauer chamber. The cells are then centrifuged at 3500 g for 1 min. The pellets obtained are photographed, and the supernatant is subsequently removed by suction. The pellets are dissolved in 1 ml of 1N NaOH at 80° C. for 1 h and then cooled to RT. 200 μl per cup (as quadruple determination) are subsequently pipetted into a 96-well plate (VWR, Article No.: 4100636981), and the absorption at a wavelength of 405 nm is determined (Safire, Tecan). The content of melanin can be determined in this way by means of a calibration line. As comparison with the compounds of the formula I to be investigated, a sample with dimethyl sulfoxide (DMSO) (0.1%) as negative control and a sample with IBMX (200 μm) as positive control are each investigated in parallel. The following tables give the results of the determination of the melanin concentration obtained for the substance dilutions indicated. The results obtained are quoted relative to the negative control with dimethyl sulfoxide (DMSO), whose measurement value is set to 100%. IBMX serves as positive control.

[1] = Test 1, 300 μM (printed 300 µM)

Row | Compound | Effect on melanogenesis (result in words) (Result of Test 2) | Melanin content in pg/B-16V cell (Test 2, 100 μM) [pg/B-16V cell] | Melanin content in pg/B-16V cell (Test 2, 500 μM) [pg/B-16V cell] | Effect on melanogenesis (result in words) (Result of Test 1) | Melanin content in pg/B-16V cell (Test 1, 50 μM) [pg/B-16V cell] | also measured
1 | COc1cc(OC)c(C(C)=O)c(OC)c1 [Ih] | promote melanogenesis | 126 | 164 | – | – | –
2 | CC(=O)c1c(O)cc(O)cc1O [Ic] | – | – | – | promote melanogenesis | 129 | Melanin content in pg/B-16V cell (Test 1, 100 μM): 144 pg/B-16V cell; Melanin content in pg/B-16V cell (Test 1, 500 μM): 184 pg/B-16V cell
3 | CC(=O)c1ccccc1O [Ia, 1-(2-Hydroxyphenyl)ethanone] | – | – | – | promote melanogenesis | 191 | Melanin content in pg/B-16V cell [1]: 429 pg/B-16V cell; Melanin content in pg/B-16V cell (Test 1, 1 mM): 438 pg/B-16V cell
4 | COc1cccc(O)c1C(C)=O [Id, 1-(2-Hydroxy-6-methoxyphenyl)ethanone] | promote melanogenesis | 275 | 432 | – | – | –
5 | CC(=O)c1ccccc1N [Ig] | promote melanogenesis | 133 | 209 | – | – | –
6 | CC(C)Cn1c(=O)n(C)c(=O)c2[nH]cnc21 [IBMX, reference compound] | – | – | – | – | – | Melanin content in pg/B-16V cell (Test 1, 200 μM (printed 200 µM)): 726 pg/B-16V cell; Melanin content in pg/B-16V cell (Test 2, 200 μM (printed 200 µM)): 338 pg/B-16V cell
7 | COc1ccc(C(C)=O)c(OC)c1 [Ie, 1-(2,4-Dimethoxyphenyl)-ethanone] | promote melanogenesis | 104 | 121 | – | – | –
8 | COc1ccccc1C(C)=O [Ib, 1-(2-Methoxyphenyl)ethanone] | – | – | – | promote melanogenesis | 202 | Melanin content in pg/B-16V cell [1]: 318 pg/B-16V cell; Melanin content in pg/B-16V cell (Test 1, 1 mM): 611 pg/B-16V cell

— patent US20170304168A1, “PHENYL KETONE DERIVATIVES AS SELF-TANNING AGENTS” (MERCK PATENT GmbH, priority 2012, published 2017)
